Experiments:
A2780 = test: Cell Titer Glo 2.0 relative cell viability, 72 h (Example 10); format: cell-based; conditions: Homo sapiens, A2780 cell line, read-out: Abs IC50
Experimental: (§1) The present Example provides experimental evidence that cell lines predicted to be sensitive to a Chk1 inhibitor (e.g., prexasertib, are also sensitive to Wee1 inhibitors (e.g., adavosertib (AZD1775, MK1775) and azenosertib (Zn-C3)). Cell lines were treated with increasing doses of either prexasertib, adavosertib, or azenosertib, and relative cell viability against a DMSO control was assessed 72 h after drug treatment using Cell Titer Glo 2.0 (Promega) and a SpectraMax microplate reader. The results are shown in FIGS. 19A-19C. Error bars represent standard deviations from quadruplicate samples.

A375 = test: as above; format: cell-based; conditions: Homo sapiens, A-375, A375 cell line, read-out: Abs IC50
Experimental: as §1

BxPC3 = test: as above; format: cell-based; conditions: Homo sapiens, BXPC-3, BxPC3 cell line, read-out: Abs IC50
Experimental: as §1

HeLa = test: as above; format: cell-based; conditions: Homo sapiens, HeLa cell line, read-out: Abs IC50
Experimental: as §1

OVCAR3 = test: as above; format: cell-based; conditions: Homo sapiens, OVCAR-3, OVCAR3 cell line, read-out: Abs IC50
Experimental: as §1

PC3 = test: as above; format: cell-based; conditions: Homo sapiens, PC-3, PC3 cell line, read-out: Abs IC50
Experimental: as §1

T47D = test: as above; format: cell-based; conditions: Homo sapiens, T47D cell line, read-out: Abs IC50
Experimental: as §1

[1] = system: OVCAR3-P and OVCAR3-R cells; test: Global pan-/phospho-proteomic analysis and western blot after gemcitabine (Example 12); format: cell-based, human; conditions: gemcitabine 10 nM for 24 hours vs DMSO control
Experimental: To determine whether treatment with gemcitabine can alter the abundance of biomarkers associated with a Response-Predictive Signature, a global pan-proteomic and phosphor-proteomic analysis was performed to compare treatment with low dose gemcitabine (10 nM for 24 hours) to DMSO control in both OVCAR3-P and OVCAR3-R cells.

Compound | IC50 (A2780) [nM] | IC50 (A375) [nM] | IC50 (BxPC3) [nM] | IC50 (HeLa) [nM] | IC50 (OVCAR3) [nM] | IC50 (PC3) [nM] | IC50 (T47D) [nM] | Ser296 phosphorylated Chk1 (BM1) abundance [1] | abundance of total cyclin E1 (BM3) [1]
C=CCn1c(=O)c2cnc(Nc3ccc(N4CCN(C)CC4)cc3)nc2n1-c1cccc(C(C)(C)O)n1 [Adavosertib] | 653 | 170 | 360 | 328 | 237 | > 10000 | > 10000 | – | –
C=CCn1c(=O)c2cnc(Nc3ccc(N4CCN(C)CC4)cc3)nc2n1-c1ccc2c(n1)[C@@](O)(CC)CC2 [Azenosertib] | 900 | 239 | 448 | 604 | 233 | > 10000 | > 10000 | – | –
Nc1ccn([C@@H]2O[C@H](CO)[C@@H](O)C2(F)F)c(=O)n1 [gemcitabine, 2′,2′-difluoro 2′-deoxycytidine] | – | – | – | – | – | – | – | significant increase | significant increase

Source: patent US20260166029A1, “METHODS AND SYSTEMS FOR TREATING DISEASE USING AN ATR/CHK1 SIGNALING PATHWAY INHIBITOR” (Acrivon Therapeutics, Inc., priority 2022, published 2026)
